Results from patent US4148896A, “Antidepressant combination” (E. I. Du Pont de Nemours and Company, priority 1978, dated 1979).
Read-outs that look alike come from different tables or passages of the source.

Columns and labels:
[1] = tested on: tetrabenazine-induced sedation; experiment: Mouse antidepressant (antitetrabenazine) test: prevention of tetrabenazine-induced ptosis and loss of exploratory activity; settings: for ED50: Mus musculus, po; for No. of Mice Blocked, EXPLORATORY ACTIVITY / No. of Mice Blocked, PTOSIS: 4 h after molindone
mouse brain MAO = molecular target: T1, mouse brain MAO (Mus musculus, UniProt Q64133); settings: for % INHIBITION: substrate 5 HT
T1 sequence (Q64133 1-526): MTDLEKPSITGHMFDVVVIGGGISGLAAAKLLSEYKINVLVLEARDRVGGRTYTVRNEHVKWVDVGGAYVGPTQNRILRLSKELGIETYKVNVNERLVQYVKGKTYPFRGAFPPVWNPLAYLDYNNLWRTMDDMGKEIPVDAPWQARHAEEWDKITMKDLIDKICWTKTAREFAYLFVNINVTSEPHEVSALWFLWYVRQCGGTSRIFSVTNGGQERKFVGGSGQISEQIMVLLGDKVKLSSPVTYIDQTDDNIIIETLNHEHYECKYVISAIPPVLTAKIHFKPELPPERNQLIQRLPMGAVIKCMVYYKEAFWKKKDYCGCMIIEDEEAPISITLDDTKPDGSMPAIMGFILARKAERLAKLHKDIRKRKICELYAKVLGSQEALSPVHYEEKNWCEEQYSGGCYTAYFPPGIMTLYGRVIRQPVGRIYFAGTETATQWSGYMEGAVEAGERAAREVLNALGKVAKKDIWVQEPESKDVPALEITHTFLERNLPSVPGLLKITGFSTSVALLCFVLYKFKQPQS

in vivo = settings: mouse, po
[2] = tested on: tryptamine-induced stereotypies and hind limb paralysis; experiment: Tryptamine potentiation test; format: in vivo, mice; settings: 2.5 mg/kg p.o., 4 Hrs., N=10
Method: […] […] (60 Mg/kg of tryptamine alone causes this syndrome but it lasts for less than a minute, usually only a few seconds.) The data were analyzed quantally and ED50's calculated.

[3] = 1 mg/kg oral (free base), 1 h, N=10
[4] = 1 mg/kg oral (free base), 2 h, N=10
[5] = 1 mg/kg oral (free base), 4 h, N=10
[6] = 3 mg/kg oral (free base), 1 h, N=10
[7] = 3 mg/kg oral (free base), 2 h, N=10
[8] = 3 mg/kg oral (free base), 4 h, N=10
[9] = 9 mg/kg oral (free base), 1 h, N=10
[10] = 9 mg/kg oral (free base), 2 h, N=10
[11] = 9 mg/kg oral (free base), 4 h, N=10
[12] = 13 mg/kg oral (free base), 1 h, N=20
[13] = 13 mg/kg oral (free base), 2 h, N=20
[14] = 13 mg/kg oral (free base), 3 h, N=20
[15] = 13 mg/kg oral (free base), 4 h, N=20
[16] = 13 mg/kg oral (free base), 6 h, N=20
[17] = 13 mg/kg oral (free base), 24 h, N=20
[18] = 27 mg/kg oral (free base), 1 h, N=10
[19] = 27 mg/kg oral (free base), 2 h, N=10
[20] = 27 mg/kg oral (free base), 4 h, N=10
[21] = 81 mg/kg oral (free base), 1 h, N=10
[22] = 81 mg/kg oral (free base), 2 h, N=10
[23] = 81 mg/kg oral (free base), 4 h, N=10
[24] = molindone 1.5 mg/kg oral alone, N=20
[25] = molindone 4.5 mg/kg oral alone, N=20
[26] = molindone 13.5 mg/kg oral alone, N=20
[27] = molindone 40.5 mg/kg oral alone, N=20
[28] = molindone alone, oral, 4 h, free base basis, N=20 (Table 2)

Q: With `CCc1c(C)[nH]c2c1C(=O)C(CN1CCOCC1)CC2` (stereo not shown) [Molindone, 3-ethyl-6,7-dihydro-2-methyl-5-(morpholinomethyl)indol-4-(5H)-one] as the compound, how does the “NUMBER OF MICE BLOCKED, EXPLORATORY ACTIVITY” value [1, 3] read?
A: 0

Q: And the “NUMBER OF MICE BLOCKED, PTOSIS” value [1, 3]?
A: 0

Q: What about the “NUMBER OF MICE BLOCKED, EXPLORATORY ACTIVITY” value [1, 4] of the same compound?
A: 0

Q: And the “NUMBER OF MICE BLOCKED, PTOSIS” value [1, 4]?
A: 0

Q: And the “NUMBER OF MICE BLOCKED, EXPLORATORY ACTIVITY” value [1, 5]?
A: 0

Q: And the “NUMBER OF MICE BLOCKED, PTOSIS” value [1, 5]?
A: 0

Q: What about the “NUMBER OF MICE BLOCKED, EXPLORATORY ACTIVITY” value [1, 6] of the same compound?
A: 0

Q: What about the “NUMBER OF MICE BLOCKED, PTOSIS” value [1, 6] of the same compound?
A: 0

Q: And the “NUMBER OF MICE BLOCKED, EXPLORATORY ACTIVITY” value [1, 7]?
A: 0

Q: What about the “NUMBER OF MICE BLOCKED, PTOSIS” value [1, 7] of the same compound?
A: 1

Q: What about the “NUMBER OF MICE BLOCKED, EXPLORATORY ACTIVITY” value [1, 8] of the same compound?
A: 0

Q: And the “NUMBER OF MICE BLOCKED, PTOSIS” value [1, 8]?
A: 0

Q: And the “NUMBER OF MICE BLOCKED, EXPLORATORY ACTIVITY” value [1, 9]?
A: 0

Q: And the “NUMBER OF MICE BLOCKED, PTOSIS” value [1, 9]?
A: 0

Q: And the “NUMBER OF MICE BLOCKED, EXPLORATORY ACTIVITY” value [1, 10]?
A: 3

Q: And the “NUMBER OF MICE BLOCKED, PTOSIS” value [1, 10]?
A: 5

Q: And the “NUMBER OF MICE BLOCKED, EXPLORATORY ACTIVITY” value [1, 11]?
A: 5

Q: And the “NUMBER OF MICE BLOCKED, PTOSIS” value [1, 11]?
A: 7

Q: What about the “NUMBER OF MICE BLOCKED, EXPLORATORY ACTIVITY” value [1, 12] of the same compound?
A: 0

Q: What about the “NUMBER OF MICE BLOCKED, PTOSIS” value [1, 12] of the same compound?
A: 0

Q: And the “NUMBER OF MICE BLOCKED, EXPLORATORY ACTIVITY” value [1, 13]?
A: 6

Q: And the “NUMBER OF MICE BLOCKED, PTOSIS” value [1, 13]?
A: 8

Q: And the “NUMBER OF MICE BLOCKED, EXPLORATORY ACTIVITY” value [1, 14]?
A: 16

Q: And the “NUMBER OF MICE BLOCKED, PTOSIS” value [1, 14]?
A: 19

Q: And the “NUMBER OF MICE BLOCKED, EXPLORATORY ACTIVITY” value [1, 15]?
A: 19

Q: What about the “NUMBER OF MICE BLOCKED, PTOSIS” value [1, 15] of the same compound?
A: 20

Q: What about the “NUMBER OF MICE BLOCKED, EXPLORATORY ACTIVITY” value [1, 16] of the same compound?
A: 20

Q: And the “NUMBER OF MICE BLOCKED, PTOSIS” value [1, 16]?
A: 20

Q: And the “NUMBER OF MICE BLOCKED, EXPLORATORY ACTIVITY” value [1, 17]?
A: 6

Q: And the “NUMBER OF MICE BLOCKED, PTOSIS” value [1, 17]?
A: 10

Q: And the “NUMBER OF MICE BLOCKED, EXPLORATORY ACTIVITY” value [1, 18]?
A: 0

Q: And the “NUMBER OF MICE BLOCKED, PTOSIS” value [1, 18]?
A: 0

Q: And the “NUMBER OF MICE BLOCKED, EXPLORATORY ACTIVITY” value [1, 19]?
A: 10

Q: And the “NUMBER OF MICE BLOCKED, PTOSIS” value [1, 19]?
A: 10

Q: And the “NUMBER OF MICE BLOCKED, EXPLORATORY ACTIVITY” value [1, 20]?
A: 10

Q: What about the “NUMBER OF MICE BLOCKED, PTOSIS” value [1, 20] of the same compound?
A: 10

Q: What about the “NUMBER OF MICE BLOCKED, EXPLORATORY ACTIVITY” value [1, 21] of the same compound?
A: 0

Q: What about the “NUMBER OF MICE BLOCKED, PTOSIS” value [1, 21] of the same compound?
A: 0

Q: What about the “NUMBER OF MICE BLOCKED, EXPLORATORY ACTIVITY” value [1, 22] of the same compound?
A: 10

Q: What about the “NUMBER OF MICE BLOCKED, PTOSIS” value [1, 22] of the same compound?
A: 10

Q: What about the “NUMBER OF MICE BLOCKED, EXPLORATORY ACTIVITY” value [1, 23] of the same compound?
A: 10

Q: What about the “NUMBER OF MICE BLOCKED, PTOSIS” value [1, 23] of the same compound?
A: 10

Q: And the ED50 ([1]; 1 h, read-out: ED50, EXPLORATORY ACTIVITY)?
A: > 81 mg/kg

Q: And the ED50 ([1]; 1 h, read-out: ED50, PTOSIS)?
A: > 81 mg/kg

Q: What about the ED50 ([1]; 2 h, read-out: ED50, EXPLORATORY ACTIVITY) of the same compound?
A: 11.2 mg/kg

Q: And the ED50 ([1]; 2 h, read-out: ED50, PTOSIS)?
A: 8.5 mg/kg

Q: And the ED50 ([1]; 4 h, read-out: ED50, EXPLORATORY ACTIVITY)?
A: 9 mg/kg

Q: What about the ED50 ([1]; 4 h, read-out: ED50, PTOSIS) of the same compound?
A: 7.2 mg/kg

Q: What about the “No. of Mice Blocked, EXPLORATORY ACTIVITY” value [1, 24] of the same compound?
A: 0

Q: And the “No. of Mice Blocked, PTOSIS” value [1, 24]?
A: 1

Q: What about the “No. of Mice Blocked, EXPLORATORY ACTIVITY” value [1, 25] of the same compound?
A: 2

Q: And the “No. of Mice Blocked, PTOSIS” value [1, 25]?
A: 5

Q: What about the “No. of Mice Blocked, EXPLORATORY ACTIVITY” value [1, 26] of the same compound?
A: 12

Q: What about the “No. of Mice Blocked, PTOSIS” value [1, 26] of the same compound?
A: 18

Q: What about the “No. of Mice Blocked, EXPLORATORY ACTIVITY” value [1, 27] of the same compound?
A: 20

Q: What about the “No. of Mice Blocked, PTOSIS” value [1, 27] of the same compound?
A: 20

Q: And the “ED50, EXPLORATORY ACTIVITY, Molindone” value [1, 28]?
A: 10.8 mg/kg

Q: What about the “ED50, PTOSIS, Molindone” value [1, 28] of the same compound?
A: 6.4 mg/kg

Q: What about the “Peak time (antitetrabenazine activity)” value ([1]; oral, mice) of the same compound?
A: 4 to 6 h

Q: What about the “MAO inhibition (in words)” value (mouse brain MAO; at the high concentration of 1×10^-3 M) of the same compound?
A: virtually inactive

Q: What about the “% INHIBITION” value (mouse brain MAO; final conc. 10^-3 m/l) of the same compound?
A: 14%

Q: And the “% INHIBITION” value (mouse brain MAO; final conc. 10^-4 m/l)?
A: 1%

Q: What about the “% INHIBITION” value (mouse brain MAO; final conc. 10^-5 m/l) of the same compound?
A: 1%

Q: What about the “% INHIBITION” value (mouse brain MAO; final conc. 10^-6 m/l) of the same compound?
A: 0%

Q: What about the LD50 at 24 h (in vivo) of the same compound?
A: 440 mg/kg

Q: What about the “HEAD TWITCH (mice responding)” value [2] of the same compound?
A: 0

Q: And the “HIND LIMB PARALYSIS (mice responding)” value [2]?
A: 0
